In PMC3735429, “Plasmodium falciparum encodes a conserved active inhibitor-2 for Protein Phosphatase type 1: perspectives for novel anti-plasmodial therapy” (BMC Biology, 2013):
Read-outs that look alike come from different tables or passages of the source. No end group written: not given here.

Legend:
[1] = tested on: Plasmodium falciparum; conditions: ref [1]-[3]; cited from earlier work
From the text: During its life cycle, Plasmodium falciparum, the deadliest malaria parasite for humans, undergoes several successive rounds of mitosis to amplify parasite populations and consequently to increase the rate of its transmission. Among the essential actors in the growth and division of the parasite are kinases and phosphatases. […] Subsequently, the identification of kinases and phosphatases and their central functions in P. falciparum[4-9] ...

[2] = tested on: 3D7 P. falciparum strain; assay: Growth inhibition assay of P. falciparum 3D7 (SYBR Green I, flow cytometry); type: cell-based, Plasmodium falciparum
Protocol: (§1) Assays were carried out in 96-well plates with a starting parasitemia of 0.5% at a haematocrit of 1% using SYBR Green I [81]. The peptides were added to the culture at different concentrations ranging from 80 μM to 1.25 μM (final concentrations) in a volume of 250 μl of RPMI-AlbuMAX (0.5%) and incubated for further 72 hr to allow all stages to complete at least one cycle. Cultures were stained for 30 minutes in the dark with SYBR Green I 1X (Invitrogen) diluted in 20 mM Tris pH8.8, 138 mM NaCl, and fixed with 1% paraformaldehyde. Fixed pRBC were stored at 4°C in the dark until flow cytometry analysis.
(§2) Parasite growth was assessed by flow cytometry on a FACSCalibur (Becton-Dickinson). Infected and uninfected erythrocytes were gated on the basis of their forward scatter (FSC) and side scatter (SSC) signals. Fluorescence analysis (Green fluorescence, FL-1 filter) was performed with CellQuest software (FACScan; BD Biosciences) on a total of 100,000 acquired events. Fluorescence was observed as described by Izumiyama et al.[82] on a two-parameters dot plot (FL1-SSC). Fluorescence of non-infected RBC was adjusted to plot between 10^0 and 10^1. Results are expressed in percentage of fluorescence among total RBC.
The drug concentration resulting in 50% inhibition of parasite growth (IC50) was assessed by determining the drug concentration corresponding to 50% of the parasitaemia observed in the peptide-free control wells. The IC50 value was calculated using the ICEstimator software based on a non-linear regression analysis of log-based dose–response curves. Results are presented as means ± sem.

[3] = tested on: HB3 P. falciparum strain; assay: Growth inhibition assay of P. falciparum HB3 (SYBR Green I, flow cytometry); type: cell-based, Plasmodium falciparum
Protocol: as §1
as §2, with “RBC. […]” for “RBC.”

[4] = molecular target: His6-PfPP1 (Plasmodium falciparum)
[5] = tested on: Xenopus oocytes; assay: Induction of germinal vesicle breakdown (GVBD, G2/M transition) in microinjected Xenopus oocytes; type: cell-based; conditions: 100 ng injected; monitored 15 h; sets of 20 oocytes, repeated at least three times
Protocol: Preparation of Xenopus oocytes and microinjection experiments were performed as previously described. Briefly, in each assay, 20 oocytes removed from at least two or three different animals were microinjected with His6-PfI2 (wild type, deleted or mutated) recombinant proteins or PfI2/PfI3 derived peptides. […] Okadaic acid was used as a positive control for ability of oocytes to respond to PP inhibition (data not shown). Regarding the pre-injection experiments, deleted, mutated His6-PfI2 proteins or PfI2/PfI3 derived peptides were pre-injected (100 ng) in the oocytes 1 hour before the His6-PfI2WT injection (100 ng). GVBD was detected by the appearance of a white spot at the apex of the animal pole after 15 hours. Oocyte extracts were prepared as follow: oocytes were lysed in buffer (50 mM HEPES pH 7.4, 500 mM NaCl, 0.05% SDS, 0.5% Triton X100, 5 mM MgCl2, 1 mg/ml bovine serum albumin, 10 μg/ ml leupeptin, 10 μg/ml aprotinin, 10 μg/ml soybean trypsin inhibitor, 10 μg/ml benzamidine, 1 mM PMSF, 1 mM sodium vanadate) and centrifuged at 4°C for 15 min at 10,000 g. To detect His6-PfI2 proteins in injected extracts, electrophoresis followed by western-blot analysis performed on oocytes extracts. The membranes were developed with anti-His mAb antibody (Qiagen).

[6] = tested on: PfPP1; assay: PfPP1 phosphatase activity assay with pNPP substrate; type: biochemical, Plasmodium falciparum; conditions: recombinant PfPP1 pre-incubated 30 min at 37°C with different concentrations of protein before pNPP; maximal effect; means of four independent experiments in duplicate
Protocol: The activity of PfPP1 with p-nitro-phenylphosphate (pNPP) was assayed as previously described. To investigate the role of PfI2 recombinant proteins or PfI2/PfI3 derived peptides on His6-PfPP1 activity, different amounts of proteins were added to 1 μg of PfPP1 recombinant protein and preincubated for 30 min at 37°C before testing the PfPP1 phosphatase activity. Okadaic acid was used as control (data not show). Results are presented as mean of increase or decrease of phosphatase activity in comparison to His6-PfPP1 incubated in the reaction buffer.

[7] = tested on: PfPP1; assay: Yeast two-hybrid PfI2-PfPP1 interaction; type: binding, Plasmodium falciparum; conditions: SD medium lacking leucine, tryptophan, histidine and adenine; 4 days
From the text: The full length PfPP1 was cloned into the pGBKT7 vector containing the DNA binding domain of gal4 (Gal4-BD) and wild-type, deleted or mutated PfI2 (PfI2WT, PfI2(1–94), PfI2(19–144), PfI2W16A, PfI2Y103A) into pGADT7 containing the gal4 activation domain (Gal4-AD). The pGBKT7-Gal4-BD-PfPP1 construct was used to transform Y187 strain and maintained on SD media without tryptophan (SD-W). The pGADT7-Gal4-AD-PfI2 constructs were used to transform AH 109 strain and maintained on SD media lacking leucine (SD-L). Mating these two haploid strains results in the formation of diploid strain, which is viable on SD media lacking leucine and tryptophan (SD-LW). Interaction of PfPP1 with the different versions of PfI2 proteins were evaluated by their capacity to grow on selective media: SD medium lacking leucine, tryptophan and histidine (SD-LWH) and SD medium lacking leucine, tryptophan, histidine and adenine (SD-LWHA) for 4 days. Yeasts transformed with empty vector or with pGBKT7 laminine were used as controls.

C=C1[C@@H](O)[C@@H]2O[C@]3(CC[C@H](/C=C/[C@@H](C)[C@@H]4CC(C)=C[C@@]5(O[C@H](C[C@@](C)(O)C(=O)O)CC[C@H]5O)O4)O3)CC[C@H]2O[C@@H]1[C@@H](O)C[C@H](C)[C@H]1O[C@@]2(CCCCO2)CC[C@H]1C [okadaic acid]
inhibition of parasite growth in vitro [1]: drastically inhibited parasite growth in vitro

VKKKKIKREIKIKKTISWKKTISW [P1]
IC50 ([2]; 3D7 strain, 72 h): 23.8 µM | IC50 ([3]; HB3 strain, 72 h): 15 µM

VKKKKIKREIKIKVVRWKVVRW [P5]
IC50 ([2]; 72 hr, 7 independent experiments, 3 batches of peptide, means ± sem, read-out: 3D7 IC50): 9.72 µM | parasite growth inhibition ([2]; at 80 μM, 72 hr, blood stage 3D7, means of seven independent experiments in duplicate): up to 90% | IC50 ([3]; 72 hr, 2 different batches, means ± sem, read-out: HB3 IC50): 8.79 µM

B1: His6-PfI2WT (natural protein)
chain: MKKKVDKSVTKKTISWDEVTINEQDKERGSRMKILEPNTPFNFILMDSASEDEASKYGDVKGSDEGQNNIADDLINKLNQLVEKQENKGVSNIDFKEKRKKHYNEYKMLQKLRKSGTLDDIDEEYKPDNKDSNCDNSNMNESEE
phosphatase activity of recombinant PfPP1 on pNPP after pre-incubation for 30 min at 37°C with different concentrations of PfI2WT; inhibition [4]: 80%

B2: PfI2WT: wild-type recombinant His-tagged P. falciparum inhibitor-2, 144 amino acids (protein)
chain: B1 chain
modifications: left off: His6, end not stated, kept
GVBD induced [5]: ~ 85% | decrease in PfPP1 phosphatase activity [6]: up to 80% | growth of diploid yeast with PfPP1 on SD-LWHA (stringent conditions) [7]: still able to grow
